{"source": "patent US20060031949A1", "about": "“Inducible expression systems for modulating the expression of target genes in eukaryotic cells and non-human animals” (priority 2004, published 2006)", "key": {"human Hif1α": {"system": "human Hif1α", "experiment": "Western analysis of Hif1α protein in HeLaTREx stable clones carrying 2O2_Hif1, doxycycline induction", "format": "cell-based", "procedure": "Cells were directly lysed on 6-well plates in 1× Laemmli sample buffer. Proteins were separated by SDS-PAGE, transferred to PVDF membrane, and western blotting was performed using antibodies against Chk1 (1:200, Santa Crutz Biotechnology, Santa Crutz, Calif. 95060), HIF-1 alpha (1:500, BD Bioscience, Palo Alto, Calif. 94303) or tetR (1:2000, Mo Bi Tec, Germany).\nTo determine whether the 2O2 promoter retains the ability to respond to doxycycline after integrating into chromosomes, the inventors used a commercial tetR expressing cell line, HeLaTREx, (Invitrogen Corp., Carlsbad, Calif. 92008) to establish stable clones that carried the 2O2 promoter linked to an shRNA targeting human Hif1α (2O2_Hif1).\nUsing the best-regulated 2O2_Hif1 clone (Hif1-7), the inventors further characterized the time and dose dependency of doxycycline induction of the 2O2 expression system. […] The doxycycline concentration that is required for maximal induction of the 2O2 system was determined in a dose-response experiment."}, "Hif1α [1]": {"system": "Hif1α", "experiment": "Hif1α protein level (western) in D54_Hif clones with or without doxycycline", "format": "cell-based, human", "conditions": "D54_Hif18 cells, 1 μg/ml doxycycline", "procedure": "(§1) Cells were incubated in the presence or absence of 1 μg/ml doxycycline. After thirty-six hours, cells were either untreated (N) or subjected to hypoxia treatment (H) for an additional sixteen hours. The cells were lysed and analyzed by western blotting using antibodies against Hif1α (upper panel) or Hif1β (lower panel). […] Cells were transfected with either pGL3-control/pRL-TK (left panel) or 1×HRE/pRL-TK plasmids (right panel) in the presence or absence of 1 μg/ml doxycycline. Thirty-six hours following transfection, cells were subjected to hypoxia treatment. Luciferase activities were determined sixteen hours after hypoxia treatment. […] Cells were incubated in the presence or absence of 1 μg/ml doxycycline. After thirty-six hours, cells were either untreated (N) or subjected to hypoxia treatment (H) for an additional sixteen hours. Total RNA were prepared and used in quantitative PCR for analyzing the level of the indicated genes.\n(§2) To assess the potential therapeutic effect of Hif1 inhibition, we established stable cell lines from D54MG parental cells that express an shRNA against Hif1α under the control of doxycycline. A panel of 8 shRNAs against Hif1α was first screened for their abilities to knockdown the target (data not shown), and the best shRNA was selected for the creation of Hif1α knockdown cell lines. […]"}, "[2]": {"system": "Hif1 dependent transcriptional activity", "experiment": "Hif1 reporter (1×HRE) luciferase activity in D54_Hif clones", "format": "cell-based, human", "conditions": "D54_Hif25 cells, 1 μg/ml doxycycline, hypoxia", "procedure": "as §1, §2"}, "Hif1α [3]": {"system": "Hif1α", "experiment": "Hif1α knockdown in subcutaneous xenograft tumors (QPCR, IHC), doxycycline in drinking water", "format": "in vivo, SCID mice", "conditions": "D54_Hif25 tumors, 1 mg/ml doxycycline in drinking water for 3 days", "procedure": "Mice bearing 200-300 mm^3 tumors were supplied with doxycycline (1 mg/ml) for 3, 6, 9 or 12 days. Tumors were collected at the end of treatment and Hif1α mRNA levels were determined by QPCR. Tumors from mice without Dox treatment were used as controls. […] Hif1α mRNA level was determined by QPCR. […] The Hif1α expression level was examined by IHC, and quantified using AxioVision 4 (Zeiss).\nTo determine whether target knockdown can be induced in xenograft tumors, the D54_Hif25 cells were injected subcutaneously into SCID mice. After tumors reached an average size of 200 mm^3, the mice were supplied with drinking water containing 1 mg/ml doxycycline to induce the expression of Hif1α shRNA. After treating the mice with doxycycline for 3, 6, 9, or 12 days, the tumors were collected and analyzed by QPCR to determine the Hif1α messenger level. […] Examination of the tumor samples by immunohistochemistry indicated a clear reduction of the Hif1α protein from day 3 onward (data not shown).\nTo determine whether the ability to induce target knockdown would be impaired over long-term doxycycline treatment or when the tumors reach a very large size, further analysis was performed of the knockdown of Hif1α in tumors from mice treated with doxycycline for 45 days. The average tumor size at the end of treatment was 2000 mm^3. […]"}, "tyrosinase": {"system": "tyrosinase", "experiment": "Tyrosinase knockdown mice by pronuclear injection of 2O2 promoter transgenes", "format": "in vivo", "conditions": "mice without tetR expression", "procedure": "Pronuclear injection is a well-established method for creating transgenic animals. In this approach, a DNA fragment (the transgene) is injected into the pronuclear stage of fertilized eggs, and the injected eggs are implanted into pseudopregnant animals. In a typical experiment, 50-80 eggs are injected in which half of the injected eggs will survive to generate neonates and 5%-20% of the neonates will contain the transgene.\nTyrosinase was selected as a target to knockdown. Tyrosinase is a key enzyme in melanin production, and the knockdown of tyrosinase in mice will generate an apparent coat color change.\nTo determine whether a modified pol III dependent promoter, such as the 2O2 promoter, is suitable for the creation of knockdown animals, transgenes were created that used the 2O2 promoters to express the two best shRNAs against tyrosinase (2O2-Tyr731 (SEQ ID NO: 46) and 2O2-Tyr338 (SEQ ID NO: 47)). These transgenes are shown below. The bold characters represent the shRNA sequences and the underscored characters represent the promoter sequences. […] In mice without tetR expression, the 2O2 promoter is expected to be constitutively active."}}}
{"molecule": "C[C@H]1c2cccc(O)c2C(=O)C2=C(O)[C@]3(O)C(=O)C(C(N)=O)=C(O)[C@@H](N(C)C)[C@@H]3[C@@H](O)[C@@H]21", "note": "[doxycycline]", "values": [{"measurement": "inhibition of Hif-1 protein", "setting": "human Hif1α; clone Hif1-7, 0.1 ng/ml of doxycycline", "result": "more than 90%"}, {"measurement": "inhibition of Hif-1 protein", "setting": "human Hif1α; clone Hif1-7, 24 hours after doxycycline treatment", "result": "more than 90%"}, {"measurement": "doxycycline concentration at which maximal inhibition of Hif1α protein was reached", "setting": "human Hif1α; clone Hif1-7, dose-response experiment", "result": 10, "unit": "ng/mL"}, {"measurement": "reduction of the Hif1α protein", "setting": "Hif1α [1]", "result": 80, "unit": "%"}, {"measurement": "reduction of the Hif1 reporter activity", "setting": "[2]", "result": 80, "unit": "%"}, {"measurement": "reduction of the Hif1α mRNA in tumors", "setting": "Hif1α [3]", "result": 80, "unit": "%"}]}
{"molecule": "2O2-Tyr731: transgene using the 2O2 promoter to express an shRNA against tyrosinase (SEQ ID NO: 46) (nucleic acid, 2O2-Tyr731) DNA: GAATTCCAGGCAAAACGCACCACGTGACGGAGCGTGACCGCGCGCCGAGCGCGCGCCAAGGTCGGGCAGGAAGAGGGCCTATTTCCCATGATTCCATCATATTTGCATATACGATACAAGGCTGTTAGAGAGATAATTAGAATTAATTCGACTGTAAACACAAAGATATTAGTATAAAATACGTGACGTAGAAAGTAATAATTTCTTGGGTAGTTTGCAGTTTTAAAATTATGTTTTAAAATGGACTATCATATGCTTACCGTAACTTGAAACTCCCTATCAGTGATAGAGATTATATATCTCCCTATCAGTGATAGAGACCGTGACATTTGCACAGATGATTCAAGAGATCATCTGTGCAAATGTCACTTTTTTAAGCTT", "values": [{"measurement": "coat color of transgene-positive pups", "setting": "tyrosinase; three of 20 pups carried the transgene", "result": "different degrees of coat color change"}]}
{"molecule": "2O2-Tyr338: transgene using the 2O2 promoter to express an shRNA against tyrosinase (SEQ ID NO: 47) (nucleic acid, 2O2 promoter transgene; 2O2-Tyr338) DNA: GAATTCCAGGCAAAACGCACCACGTGACGGAGCGTGACCGCGCGCCGAGCGCGCGCCAAGGTCGGGCAGGAAGAGGGCCTATTTCCCATGATTCCATCATATTTGCATATACGATACAAGGCTGTTAGAGAGATAATTAGAATTAATTCGACTGTAAACACAAAGATATTAGTATAAAATACGTGACGTAGAAAGTAATAATTTCTTGGGTAGTTTGCAGTTTTAAAATTATGTTTTAAAATGGACTATCATATGCTTACCGTAACTTGAAACTCCCTATCAGTGATAGAGATTATATATCTCCCTATCAGTGATAGAGACCGGCAACTTCATGGGTTTCATTCAAGAGATGAAACCCATGAAGTTGCCTTTTTTAAGCTT", "values": [{"measurement": "viability of transgene-positive embryos", "setting": "tyrosinase; 40 pups without transgene, two dead embryos with it", "result": "embryonic lethality"}]}
